Results published in patent US20260092061A1, “COMPOUNDS FOR TARGETED PROTEIN DEGRADATION” (Amphista Therapeutics Limited, priority 2022, published 2026).
Read-outs that look alike come from different tables or passages of the source.

Key:
BRD7 = biological target: T1, BRD7 (Homo sapiens, UniProt Q9NPI1); test: BRD7 degradation, HiBiT-BRD7 KI HEK293 (LgBiT) cells, NanoGlo Lytic Endpoint assay (Assay Protocol 1); assay type: cell-based; settings: for Dmax at 1 µM / Dmax: HEK293; for Dmax at 1 µM: Table 3, assay 1, 1 μM compound at 5 h of treatment; for Dmax / DC50: Table 5, assay protocol 1
T1 construct: HiBiT-BRD7 KI HEK293 (LgBiT) Cells (Promega CS3023410); host or cells: HEK293 (LgBiT), HiBiT knock-in at the BRD7 locus
T1 sequence (Q9NPI1 1-651): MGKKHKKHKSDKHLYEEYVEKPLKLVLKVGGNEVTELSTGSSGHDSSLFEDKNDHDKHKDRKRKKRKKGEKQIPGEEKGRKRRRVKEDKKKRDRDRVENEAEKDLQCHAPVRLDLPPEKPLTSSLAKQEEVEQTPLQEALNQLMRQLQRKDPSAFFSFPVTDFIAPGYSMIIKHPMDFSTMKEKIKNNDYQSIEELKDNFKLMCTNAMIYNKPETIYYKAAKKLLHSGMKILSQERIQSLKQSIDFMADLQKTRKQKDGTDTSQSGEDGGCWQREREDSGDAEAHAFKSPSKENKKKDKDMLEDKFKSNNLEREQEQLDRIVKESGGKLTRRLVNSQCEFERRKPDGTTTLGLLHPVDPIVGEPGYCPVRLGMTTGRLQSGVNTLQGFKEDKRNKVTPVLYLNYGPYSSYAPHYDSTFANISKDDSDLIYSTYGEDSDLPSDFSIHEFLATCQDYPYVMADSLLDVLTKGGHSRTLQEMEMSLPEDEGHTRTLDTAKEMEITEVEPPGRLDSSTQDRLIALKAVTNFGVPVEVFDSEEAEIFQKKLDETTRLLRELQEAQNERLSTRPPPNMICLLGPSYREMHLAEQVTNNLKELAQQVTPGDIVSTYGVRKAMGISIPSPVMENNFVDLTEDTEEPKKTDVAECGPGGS
Description: HiBiT-BRD9 KI HEK293 (LgBiT) Cells (Promega CS3023412) were seeded at 8000 cells per well (38 μL) in sterile white bottom 384 well plates (Invitrogen 164610 or Greiner 781080) and incubated overnight at 37° C. with 5% CO2. The next day, compounds were prepared at 1000× final concentration in DMSO and diluted 1:100 in media (DMEM PAN Biotech P04-03550+10% FBS ATCC 302025). […] The lytic buffer was equilibrated to room temperature for 10-15 min before lytic reagent was prepared by adding substrate (1:50) and LgBit protein (1:100) in lytic buffer. 40 μL lytic reagent mix was added to each well of the cel plate and plates were centrifuged briefly at ˜50g. Plates were incubated with shaking (350 RPM) for 12-24 min before reading using the LUM plus module of a BMG Pherastar FSX. Data was analysed using Dotmatics software and % BRD9 remaining was calculated by normalisation to average data from high and low control wells (DMSO treated cels and no cells respectively).
BRD7 degradation was determined in line with the procedure as outlined above for BRD9, with the exception that HiBiT-BRD7 KI HEK293 (LgBiT) Cells (Promega CS3023410) were seeded at 8000 cells per well (CPW) (36 uL) in sterile white bottom 384 well plates (Invitrogen 164610 or Greiner 781080) and incubated overnight at 37° C. with 5% CO2.

BRD9 = biological target: T2, BRD9 (Homo sapiens, UniProt Q9H8M2); test: Degradation of BRD9 (IF), immunofluorescence in MV4-11 cells, 24 hours (Assay Protocol 2); assay type: cell-based; parameters: A suspension of MV4-11 cells (ATCC CRL-9591) was prepared; host or cells: MV4-11
T2 sequence (Q9H8M2 1-597): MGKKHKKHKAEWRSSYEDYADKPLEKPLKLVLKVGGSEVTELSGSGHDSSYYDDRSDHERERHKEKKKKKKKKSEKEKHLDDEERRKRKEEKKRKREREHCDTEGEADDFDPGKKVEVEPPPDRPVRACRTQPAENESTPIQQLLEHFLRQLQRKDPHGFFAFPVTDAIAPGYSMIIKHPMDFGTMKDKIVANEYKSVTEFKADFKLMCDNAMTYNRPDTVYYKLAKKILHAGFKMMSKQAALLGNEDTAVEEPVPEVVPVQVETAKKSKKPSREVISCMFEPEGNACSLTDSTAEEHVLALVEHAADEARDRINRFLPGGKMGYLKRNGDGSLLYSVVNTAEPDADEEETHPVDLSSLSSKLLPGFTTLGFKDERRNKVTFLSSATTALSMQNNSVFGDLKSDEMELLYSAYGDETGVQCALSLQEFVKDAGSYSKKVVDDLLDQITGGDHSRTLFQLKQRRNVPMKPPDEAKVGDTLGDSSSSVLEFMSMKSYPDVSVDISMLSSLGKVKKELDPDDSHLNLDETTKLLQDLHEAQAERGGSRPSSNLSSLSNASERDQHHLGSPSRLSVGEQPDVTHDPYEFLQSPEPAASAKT
Outline: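 % BRD9 remaining, scaled between DMSO (high) and 100 nM CFT-8634 (low) control wells, derives from mean Alexa 647 contrast in central nuclei by high-content imaging. MV4-11 cells had 24 h compound exposure at 37° C. before PFA fixation, Triton permeabilisation and anti-BRD9 E4Q3F immunostaining.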

[1] = MV4-11, 24 h, Table 2, BRD9 degradation (IF), Assay Protocol 2, MV4-11 cells, read-out: Assay 2 DCmax
[2] = Table 2, BRD9 degradation (IF), Assay Protocol 2, MV4-11 cells, read-out: Assay 2 DC50
[3] = MV4-11, Table 4, BRD9 degradation, determined according to Assay Protocol 2, read-out: Dmax^2
[4] = Table 4, BRD9 degradation, determined according to Assay Protocol 2, read-out: DC50^2
[5] = MV4-11, Table 5, cells marked *: measured in accordance with Assay Protocol 2, read-out: BRD9 Dmax (%)
[6] = Table 5, cells marked *: measured in accordance with Assay Protocol 2, read-out: BRD9 DC50

| Dmax at 1 µM (BRD7) | Dmax (BRD9; [1]) | DC50 (BRD9; [2]) | Dmax (BRD7) | DC50 (BRD7) | Dmax (BRD9; [3]) | DC50 (BRD9; [4]) | Dmax (BRD9; [5]) | DC50 (BRD9; [6]) | SMILES |
| --- | --- | --- | --- | --- | --- | --- | --- | --- | --- |
| < 25% | 40 to 70% | 10 to 25 nM |  |  |  |  |  |  | COc1cc(-c2cn(C)c(=O)c(C)c2C)cc(OC)c1CN1CCCN(Cc2cccc3c2CCN(C(=O)/C(C#N)=C/C(C)(C)C)C3C)CC1 (mixture of isomers) [Compound A72, (E/Z)-2-(5-((4-(2,6-dimethoxy-4-(1,4,5-trimethyl-6-oxo-1,6-dihydropyridin-3-yl)benzyl)-1,4-diazepan-1-yl)methyl)-1-methyl-1,2,3,4-tetrahydroisoquinoline-2-carbonyl)-4,4-dimethylpent-2-enenitrile] |
|  |  |  | < 25% | > 1000 nM | 50 to 70% | > 200 nM |  |  | COc1cc(-c2cn(C)c(=O)c(C)c2C)cc(OC)c1CN(C)C1CCN(C(=O)/C(C#N)=C/C(C)(C)C)CC1 [BRD9d, (E/Z)-2-(4-((2,6-dimethoxy-4-(1,4,5-trimethyl-6-oxo-1,6-dihydropyridin-3-yl)benzyl)(methyl)amino)piperidine-1-carbonyl)-4,4-dimethylpent-2-enenitrile] |
| 25 to 40% | 40 to 70% | < 1.25 nM |  |  |  |  |  |  | COc1cc(-c2cn(C)c(=O)c(C)c2C)cc(OC)c1CN1CCN(Cc2cccc3c2CCN(C(=O)/C(C#N)=C/c2cccc(Br)n2)C3C)CC1 (mixture of isomers) [Compound A16, (E/Z)-3-(6-bromopyridin-2-yl)-2-(5-((4-(2,6-dimethoxy-4-(1,4,5-trimethyl-6-oxo-1,6-dihydropyridin-3-yl)benzyl)piperazin-1-yl)methyl)-1-methyl-1,2,3,4-tetrahydroisoquinoline-2-carbonyl) acrylonitrile] |
| < 25% | 70 to 75% | < 1.25 nM |  |  |  |  |  |  | COc1cc(-c2cn(C)c(=O)c(C)c2C)cc(OC)c1CN1CCN(Cc2cccc3c2CCN(C(=O)/C(C#N)=C/c2nccs2)C3C)CC1 (mixture of isomers) [Compound A4, (E/Z)-2-(5-((4-(2,6-dimethoxy-4-(1,4,5-trimethyl-6-oxo-1,6-dihydropyridin-3-yl)benzyl)piperazin-1-yl)methyl)-1-methyl-1,2,3,4-tetrahydroisoquinoline-2-carbonyl)-3-(thiazol-2-yl)acrylonitrile] |
|  |  |  | < 25% | > 1000 nM | 30 to 50% |  | 25 to 40% | > 1000 nM | COc1cc(-c2cn(C)c(=O)c(C)c2C)cc(OC)c1CN1CCN(C(=O)/C(C#N)=C/C(C)(C)C)C2(CC2)C1 [BRD9e, (E/Z)-2-(7-(2,6-dimethoxy-4-(1,4,5-trimethyl-6-oxo-1,6-dihydropyridin-3-yl)benzyl)-4,7-diazaspiro[2,5]octane-4-carbonyl)-4,4-dimethylpent-2-enenitrile] |
| 25 to 40% | 40 to 70% | < 1.25 nM |  |  |  |  |  |  | COc1cc(-c2cn(C)c(=O)c3cnccc23)cc(OC)c1CN1CCN(Cc2cccc3c2CCN(C(=O)/C(C#N)=C\c2ncc(C)s2)C3C)CC1 (mixture of isomers) [Compound A10, (E/Z)-2-(5-((4-(2,6-dimethoxy-4-(2-methyl-1-oxo-1,2-dihydro-2,7-naphthyridin-4-yl)benzyl)piperazin-1-yl)methyl)-1-methyl-1,2,3,4-tetrahydroisoquinoline-2-carbonyl)-3-(5-methylthiazol-2-yl)acrylonitrile] |
|  |  |  | 25 to 40% | > 1000 nM | > 70% | < 25 nM |  |  | COc1cc(-c2cn(C)c(=O)c(C)c2C)cc(OC)c1CN1CCN(C(=O)/C(C#N)=C/c2cccc(Br)n2)CC1 [BRD9h, (E/Z)-3-(6-bromopyridin-2-yl)-2-(4-(2,6-dimethoxy-4-(1,4,5-trimethyl-6-oxo-1,6-dihydropyridin-3-yl)benzyl)piperazine-1-carbonyl)acrylonitrile] |
| 25 to 40% | > 75% | 1.25 to 10 nM |  |  |  |  |  |  | COc1cc(-c2cn(C)c(=O)c3cnccc23)cc(OC)c1CN(C)Cc1cccc2c1CCN(C(=O)/C(C#N)=C/c1cccc(Br)n1)C2C (mixture of isomers) [Compound A50] |
|  |  |  | < 25% | > 1000 nM | 50 to 70% |  |  |  | COc1cc(-c2cn(C)c(=O)c(C)c2C)cc(OC)c1CN1CCN(C(=O)/C(C#N)=C/C(C)(C)C)CC1 [BRD9a, (E/Z)-2-(4-(2,6-dimethoxy-4-(1,4,5-trimethyl-6-oxo-1,6-dihydropyridin-3-yl)benzyl)piperazine-1-carbonyl)-4,4-dimethylpent-2-enenitrile] |
| < 25% | 40 to 70% | < 1.25 nM |  |  |  |  |  |  | COc1cc(-c2cn(C)c(=O)c(C)c2C)cc(OC)c1CN1CCC(Oc2cccc3c2CCN(C(=O)/C(C#N)=C/c2cccc(Br)n2)C3C)CC1 (mixture of isomers) [Compound A68, (E/Z)-3-(6-bromopyridin-2-yl)-2-(5-((1-(2,6-dimethoxy-4-(1,4,5-trimethyl-6-oxo-1,6-dihydropyridin-3-yl)benzyl)piperidin-4-yl)oxy)-1-methyl-1,2,3,4-tetrahydroisoquinoline-2-carbonyl)acrylonitrile] |
|  |  |  | 25 to 40% | > 1000 nM |  | < 25 nM |  |  | COc1cc(-c2cn(C)c(=O)c(C)c2C)cc(OC)c1CN1CC2CC1CN2C(=O)/C(C#N)=C/c1nccs1 (mixture of isomers) [BRD9i, (E/Z)-2-(5-(2,6-dimethoxy-4-(1,4,5-trimethyl-6-oxo-1,6-dihydropyridin-3-yl)benzyl)-2,5-diazabicyclo[2.2.1]heptane-2-carbonyl)-3-(thiazol-2-yl)acrylonitrile] |
|  |  |  | 70 to 75% | 25 to 1000 nM | 50 to 70% |  | 40 to 70% | 25 to 1000 nM | COc1cc(-c2cn(C)c(=O)c(C)c2C)cc(OC)c1CN(C)C(=O)/C(C#N)=C/C(C)(C)C [BRD9ac, (E/Z)-2-cyano-N-(2,6-dimethoxy-4-(1,4,5-trimethyl-6-oxo-1,6-dihydropyridin-3-yl)benzyl)-N,4,4-trimethylpent-2-enamide] |

| SMILES | Dmax at 1 µM (BRD7) | Dmax (BRD9; [1]) | DC50 (BRD9; [2]) | Dmax (BRD7) | DC50 (BRD7) | Dmax (BRD9; [3]) | DC50 (BRD9; [4]) | Dmax (BRD9; [5]) | DC50 (BRD9; [6]) |
| --- | --- | --- | --- | --- | --- | --- | --- | --- | --- |
| COc1cc(-c2cn(C)c(=O)c(C)c2C)cc(OC)c1CN1CC2CC(C1)N2Cc1cccc2c1CCN(C(=O)/C(C#N)=C/C(C)(C)C)C2C (mixture of isomers) [Compound A71, (E/Z)-2-(5-((3-(2,6-dimethoxy-4-(1,4,5-trimethyl-6-oxo-1,6-dihydropyridin-3-yl)benzyl)-3,6-diazabicyclo[3.1.1]heptan-6-yl)methyl)-1-methyl-1,2,3,4-tetrahydroisoquinoline-2-carbonyl)-4,4-dimethylpent-2-enenitrile] | 40 to 70% | > 75% | < 1.25 nM |  |  |  |  |  |  |
